Test results reported in patent US10765114B2, “4-amino-6-(pyridyl and 2-substitutedphenyl)-picolinates and 6-amino-2-(pyridyl and 2-substitutedphenyl)-pyrimidine-4-carboxylates and their use as herbicides” (Dow AgroSciences LLC, priority 2013, dated 2020).

system: Key Grass and Sedge Weeds as well as Grass Crops; assay: Post-Emergent Test II (Table 6); format: in vivo; conditions: post-emergence, 336 h, CYPSS, 70 g ai/ha, 14 days after application, read-out: Visual Growth Reduction (%) 14 Days After Application CYPSS
How it was run: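 Visual injury ratings (0 = no injury, 100 = complete kill) taken 14 days after treatment, relative to untreated controls. Compounds, in an acetone/DMSO aqueous carrier with crop oil and surfactant, were applied by track sprayer at 187 L/ha, in a twofold dilution series from the top rate, to plants at the first to second true-leaf stage.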

| Compound | pest or weed control at 70 g/ha [%] |
| --- | --- |
| COC(=O)c1nc(-c2c(F)cc(Cl)c(F)c2C)cc(N)c1Cl [Compound 38, methyl 4-amino-3-chloro-6-(4-chloro-3,6-difluoro-2-methylphenyl)picolinate] | 0 to 29 |

same assay, conditions: post-emergence, 336 h, CYPSS, 140 g ai/ha, 14 days after application, read-out: Visual Growth Reduction (%) 14 Days After Application CYPSS

| Compound | pest or weed control at 140 g/ha [%] |
| --- | --- |
| COC(=O)c1nc(-c2c(F)cc(Cl)c(F)c2C)cc(N)c1Cl [Compound 38, methyl 4-amino-3-chloro-6-(4-chloro-3,6-difluoro-2-methylphenyl)picolinate] | 0 to 29 |

same assay, conditions: post-emergence, 336 h, DIGSA: crabgrass (Digitaria sanguinalis), 70 g ai/ha, 14 days after application, read-out: Visual Growth Reduction (%) 14 Days After Application DIGSA

| Compound | pest or weed control at 70 g/ha [%] |
| --- | --- |
| COC(=O)c1nc(-c2c(F)cc(Cl)c(F)c2C)cc(N)c1Cl [Compound 38, methyl 4-amino-3-chloro-6-(4-chloro-3,6-difluoro-2-methylphenyl)picolinate] | 0 to 29 |

same assay, conditions: post-emergence, 336 h, DIGSA: crabgrass (Digitaria sanguinalis), 140 g ai/ha, 14 days after application, read-out: Visual Growth Reduction (%) 14 Days After Application DIGSA

| Compound | pest or weed control at 140 g/ha [%] |
| --- | --- |
| COC(=O)c1nc(-c2c(F)cc(Cl)c(F)c2C)cc(N)c1Cl [Compound 38, methyl 4-amino-3-chloro-6-(4-chloro-3,6-difluoro-2-methylphenyl)picolinate] | 0 to 29 |

same assay, conditions: post-emergence, 336 h, ECHSS, 70 g ai/ha, 14 days after application, read-out: Visual Growth Reduction (%) 14 Days After Application ECHSS

| Compound | pest or weed control at 70 g/ha [%] |
| --- | --- |
| COC(=O)c1nc(-c2c(F)cc(Cl)c(F)c2C)cc(N)c1Cl [Compound 38, methyl 4-amino-3-chloro-6-(4-chloro-3,6-difluoro-2-methylphenyl)picolinate] | 0 to 29 |

same assay, conditions: post-emergence, 336 h, ECHSS, 140 g ai/ha, 14 days after application, read-out: Visual Growth Reduction (%) 14 Days After Application ECHSS

| Compound | pest or weed control at 140 g/ha [%] |
| --- | --- |
| COC(=O)c1nc(-c2c(F)cc(Cl)c(F)c2C)cc(N)c1Cl [Compound 38, methyl 4-amino-3-chloro-6-(4-chloro-3,6-difluoro-2-methylphenyl)picolinate] | 0 to 29 |

same assay, conditions: post-emergence, 336 h, ORYSS (crop), 70 g ai/ha, 14 days after application, read-out: Visual Growth Reduction (%) 14 Days After Application ORYSS

| Compound | pest or weed control at 70 g/ha [%] |
| --- | --- |
| COC(=O)c1nc(-c2c(F)cc(Cl)c(F)c2C)cc(N)c1Cl [Compound 38, methyl 4-amino-3-chloro-6-(4-chloro-3,6-difluoro-2-methylphenyl)picolinate] | 0 to 29 |

same assay, conditions: post-emergence, 336 h, ORYSS (crop), 140 g ai/ha, 14 days after application, read-out: Visual Growth Reduction (%) 14 Days After Application ORYSS

| Compound | pest or weed control at 140 g/ha [%] |
| --- | --- |
| COC(=O)c1nc(-c2c(F)cc(Cl)c(F)c2C)cc(N)c1Cl [Compound 38, methyl 4-amino-3-chloro-6-(4-chloro-3,6-difluoro-2-methylphenyl)picolinate] | 0 to 29 |

same assay, conditions: post-emergence, 336 h, SETFA: giant foxtail (Setaria faberi), 70 g ai/ha, 14 days after application, read-out: Visual Growth Reduction (%) 14 Days After Application SETFA

| Compound | pest or weed control at 70 g/ha [%] |
| --- | --- |
| COC(=O)c1nc(-c2c(F)cc(Cl)c(F)c2C)cc(N)c1Cl [Compound 38, methyl 4-amino-3-chloro-6-(4-chloro-3,6-difluoro-2-methylphenyl)picolinate] | 0 to 29 |

same assay, conditions: post-emergence, 336 h, SETFA: giant foxtail (Setaria faberi), 140 g ai/ha, 14 days after application, read-out: Visual Growth Reduction (%) 14 Days After Application SETFA

| Compound | pest or weed control at 140 g/ha [%] |
| --- | --- |
| COC(=O)c1nc(-c2c(F)cc(Cl)c(F)c2C)cc(N)c1Cl [Compound 38, methyl 4-amino-3-chloro-6-(4-chloro-3,6-difluoro-2-methylphenyl)picolinate] | 0 to 29 |

same assay, conditions: post-emergence, 336 h, SORVU: grain sorghum (Sorghum vulgare), 70 g ai/ha, 14 days after application, read-out: Visual Growth Reduction (%) 14 Days After Application SORVU

| Compound | pest or weed control at 70 g/ha [%] |
| --- | --- |
| COC(=O)c1nc(-c2c(F)cc(Cl)c(F)c2C)cc(N)c1Cl [Compound 38, methyl 4-amino-3-chloro-6-(4-chloro-3,6-difluoro-2-methylphenyl)picolinate] | 0 to 29 |

same assay, conditions: post-emergence, 336 h, SORVU: grain sorghum (Sorghum vulgare), 140 g ai/ha, 14 days after application, read-out: Visual Growth Reduction (%) 14 Days After Application SORVU

| Compound | pest or weed control at 140 g/ha [%] |
| --- | --- |
| COC(=O)c1nc(-c2c(F)cc(Cl)c(F)c2C)cc(N)c1Cl [Compound 38, methyl 4-amino-3-chloro-6-(4-chloro-3,6-difluoro-2-methylphenyl)picolinate] | 0 to 29 |

same assay, conditions: post-emergence, 336 h, TRZSS (crop), 70 g ai/ha, 14 days after application, read-out: Visual Growth Reduction (%) 14 Days After Application TRZSS

| Compound | pest or weed control at 70 g/ha [%] |
| --- | --- |
| COC(=O)c1nc(-c2c(F)cc(Cl)c(F)c2C)cc(N)c1Cl [Compound 38, methyl 4-amino-3-chloro-6-(4-chloro-3,6-difluoro-2-methylphenyl)picolinate] | 45 to 59 |

same assay, conditions: post-emergence, 336 h, TRZSS (crop), 140 g ai/ha, 14 days after application, read-out: Visual Growth Reduction (%) 14 Days After Application TRZSS

| Compound | pest or weed control at 140 g/ha [%] |
| --- | --- |
| COC(=O)c1nc(-c2c(F)cc(Cl)c(F)c2C)cc(N)c1Cl [Compound 38, methyl 4-amino-3-chloro-6-(4-chloro-3,6-difluoro-2-methylphenyl)picolinate] | 60 to 74 |

same assay, conditions: post-emergence, 336 h, ZEAMX: maize, corn (Zea mays), 70 g ai/ha, 14 days after application, read-out: Visual Growth Reduction (%) 14 Days After Application ZEAMX

| Compound | pest or weed control at 70 g/ha [%] |
| --- | --- |
| COC(=O)c1nc(-c2c(F)cc(Cl)c(F)c2C)cc(N)c1Cl [Compound 38, methyl 4-amino-3-chloro-6-(4-chloro-3,6-difluoro-2-methylphenyl)picolinate] | 0 to 29 |

same assay, conditions: post-emergence, 336 h, ZEAMX: maize, corn (Zea mays), 140 g ai/ha, 14 days after application, read-out: Visual Growth Reduction (%) 14 Days After Application ZEAMX

| Compound | pest or weed control at 140 g/ha [%] |
| --- | --- |
| COC(=O)c1nc(-c2c(F)cc(Cl)c(F)c2C)cc(N)c1Cl [Compound 38, methyl 4-amino-3-chloro-6-(4-chloro-3,6-difluoro-2-methylphenyl)picolinate] | 0 to 29 |
